Measured values reported in patent US12358915B2, “METTL3 inhibitory compounds” (STORM THERAPEUTICS LTD., priority 2019, dated 2025).

How the values were obtained:
[1] = biological target: T1, METTL3/14 (Homo sapiens, UniProt Q86U44); test: METTL3/14 methyltransferase assay (METTL3_14 RFMS, RapidFire mass spectrometry); format: biochemical; conditions: 5 nM METTL3/14, 0.2 μM RNA substrate, 0.5 μM SAM; lower limit of the assay IC50=5 nM; Compounds 266-351; read-out: METTL3_14 RFMS IC50;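 also: recombinant His-tagged METTL3 with FLAG-tagged METTL14 from baculovirus, SAH product quantified by mass spectrometry against isotope-labelled internal standards, 60 min at room temperature, scaled between no-RNA and DMSO-only wells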
T1 construct: The enzyme used was full-length his-tagged METTL3; His; made in house
T1 sequence (Q86U44 whole entry): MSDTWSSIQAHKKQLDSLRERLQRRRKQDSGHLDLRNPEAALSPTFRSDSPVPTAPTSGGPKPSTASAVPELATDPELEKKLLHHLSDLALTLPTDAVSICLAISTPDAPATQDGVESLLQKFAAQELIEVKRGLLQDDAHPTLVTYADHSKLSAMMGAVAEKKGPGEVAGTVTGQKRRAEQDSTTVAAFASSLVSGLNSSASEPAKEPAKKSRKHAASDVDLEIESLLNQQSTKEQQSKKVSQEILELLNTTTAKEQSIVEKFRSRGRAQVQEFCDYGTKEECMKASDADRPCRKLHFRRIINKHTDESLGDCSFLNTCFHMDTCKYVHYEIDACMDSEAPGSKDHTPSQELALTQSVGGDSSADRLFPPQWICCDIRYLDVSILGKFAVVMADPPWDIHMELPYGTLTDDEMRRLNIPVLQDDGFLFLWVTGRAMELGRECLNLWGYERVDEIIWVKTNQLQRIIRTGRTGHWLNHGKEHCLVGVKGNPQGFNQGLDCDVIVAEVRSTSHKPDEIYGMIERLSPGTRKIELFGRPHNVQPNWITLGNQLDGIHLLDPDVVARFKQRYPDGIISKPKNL
T1 sequence (Q9HCE5 whole entry partner): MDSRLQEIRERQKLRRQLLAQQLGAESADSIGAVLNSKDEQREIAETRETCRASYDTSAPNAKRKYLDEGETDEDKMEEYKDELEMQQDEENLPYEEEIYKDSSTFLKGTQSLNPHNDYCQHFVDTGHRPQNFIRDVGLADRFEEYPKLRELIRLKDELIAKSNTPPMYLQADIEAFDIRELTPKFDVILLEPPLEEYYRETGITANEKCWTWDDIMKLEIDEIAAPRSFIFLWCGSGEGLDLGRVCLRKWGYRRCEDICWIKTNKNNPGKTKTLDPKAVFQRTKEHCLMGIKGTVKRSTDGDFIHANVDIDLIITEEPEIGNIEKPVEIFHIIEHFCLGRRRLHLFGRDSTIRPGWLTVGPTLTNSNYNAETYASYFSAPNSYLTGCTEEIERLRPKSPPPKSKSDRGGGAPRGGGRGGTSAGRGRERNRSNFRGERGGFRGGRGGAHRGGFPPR

[2] = test system: MOLM-13 cells; test: MOLM13 CTG - analysis of cell proliferation (Cell Titre Glo); format: cell-based; conditions: Homo sapiens, geometric mean, read-out: CTG MOLM13 cells IC50 GEOMEAN
Protocol: MOLM-13 or MOLM-14 cells were plated, in suspension, in 24 well tissue culture plates at final concentration of 200,000/ml, with or without 50 ng/ml IFNγ. […] Cells were incubated for 4 days at 37° C. at which point 600 μl of cell suspension was removed for Mass spectrometry analysis of m6A. 600 μl of fresh media containing the appropriate concentration of METTL3 inhibitor/IFNγ was added to remaining cell suspensions. Cells where then cultured for a further 7 days, cell suspension was sampled for analysis of proliferation and Cell surface markers periodically.
At regular time points (4, 5, 6 &7) days cells were mixed to maintain a homogenous cell suspension. 25 μl of this cell suspension was removed and added to a white 384 well plate, 25 μl of Cell Titre Glo reagent (Promega) was added, and incubated for 10 mins at room temperature before measurement of luminescence intensity, as per the manufacturers instructions.

[3] = test system: Caov-3 cells; test: Caov3 CTG assay - proliferation assay; format: cell-based; conditions: Homo sapiens, 120 hours treatment, 30 μM top concentration, CellTiter-Glo, geometric mean, read-out: CTG Caov3 cells IC50 GEOMEAN
Protocol: Upon treatment, Coav-3 cells were incubated for 10 min at RT with the CellTiter-Glo reagent (G7571, Promega). Measurement of the luminescence signal was performed on a microplate reader (Ensight, PerkinElmer).

c1cc(-c2cn(Cc3cn4cc(CNCC5CCC5)ccc4n3)nn2)c2cn[nH]c2c1 [Example 327, N-(cyclobutylmethyl)-1-[2-[[4-(1H-indazol-4-yl)triazol-1-yl]methyl]imidazo[1,2-a]pyridin-6-yl]methanamine]
IC50 [1]: 5.78 nM
IC50 [2]: 1620 nM
IC50 [3]: 572 nM

FC1(F)CC(CNCc2ccc3nc(Cc4cn(-c5cccc6[nH]ncc56)nn4)cn3c2)C1 [Example 337, [(3,3-difluorocyclobutyl)methyl][(2-{[1-(1H-indazol-4-yl)-1H-1,2,3-triazol-4-yl]methyl}imidazo[1,2-a]pyridin-6-yl)methyl]amine]
IC50 [1]: 16.3 nM
IC50 [2]: 5170 nM
IC50 [3]: 3210 nM

N#Cc1cc(-c2cn(Cc3cn4cc(CNCC5CCC5)ccc4n3)nn2)c2cn[nH]c2c1 [Example 338, 4-{1-[(6-{[(cyclobutylmethyl)amino]methyl}imidazo[1,2-a]pyridin-2-yl)methyl]-1H-1,2,3-triazol-4-yl}-1H-indazole-6-carbonitrile]
IC50 [1]: 7.49 nM
IC50 [2]: 1190 nM
IC50 [3]: 1110 nM

c1cc(-c2cn(Cc3cn4cc(CNCC5CCC5)ccc4n3)cn2)c2cn[nH]c2c1 [Example 339, N-(cyclobutylmethyl)-1-[2-[[4-(1H-indazol-4-yl)imidazol-1-yl]methyl]imidazo[1,2-a]pyridin-6-yl]methanamine]
IC50 [1]: 10.1 nM
IC50 [2]: 3070 nM
IC50 [3]: 849 nM

COc1cc(-c2cn(Cc3cn4cc(CNCC5(OC)CCC5)ccc4n3)nn2)c2cn[nH]c2c1 [Example 343, N-[(1-methoxycyclobutyl)methyl]-1-[2-[[4-(6-methoxy-1H-indazol-4-yl)triazol-1-yl]methyl]imidazo[1,2-a]pyridin-6-yl]methanamine]
IC50 [1]: 6.1 nM
IC50 [2]: 930 nM
IC50 [3]: 554 nM
